According to article PMC7966987, “Insights into the catalytic properties of the mitochondrial rhomboid protease PARL” (The Journal of Biological Chemistry, 2021):

Molecular target: T1, human PARLΔ55 (Homo sapiens, UniProt Q9H300)
T1 construct: to generate full-length (FL) starting at residue 55 or the β-cleavage form truncated at residue 77; GFP-hexahistidine (behind a TEV cleavage site) (C, cleaved yes); made in house; host or cells: Pichia pastoris
T1 sequence (Q9H300 56-379): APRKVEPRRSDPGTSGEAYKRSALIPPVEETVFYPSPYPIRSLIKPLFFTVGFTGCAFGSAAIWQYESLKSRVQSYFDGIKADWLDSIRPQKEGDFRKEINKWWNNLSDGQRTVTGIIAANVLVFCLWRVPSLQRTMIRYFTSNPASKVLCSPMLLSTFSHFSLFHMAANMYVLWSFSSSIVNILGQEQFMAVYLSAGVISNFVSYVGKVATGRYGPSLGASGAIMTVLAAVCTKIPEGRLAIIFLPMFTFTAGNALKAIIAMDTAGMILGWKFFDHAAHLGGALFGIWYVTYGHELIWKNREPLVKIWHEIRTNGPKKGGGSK
Assay: IQ-peptide substrate cleavage kinetics, PARLΔ55 in proteoliposomes
Assay type: biochemical
Conditions: PARLΔ55 in PLs (E. coli polar lipids), 50 mM Tris-HCl pH 7.0, 150 mM NaCl, 10% glycerol, no DDM, 37 °C; mean ± SEM
Excerpt: To assess the activity of recombinant PARL toward known substrates in a lipid bilayer, full-length and β-truncated PARL were reconstituted in proteoliposomes (PLs) using Escherichia coli lipids that closely resemble the composition of the IMM ([31]). We determined that the EDANS/Dabcyl - FRET tags prevented incorporation of the substrates into PL; however, the substrate could still be cleaved since the active site is proposed to be near the lipid/water interface ([40], [41]) analogous to bacterial rhomboid proteases (Fig. 1). To calculate the specific activity of the protease, we quantified the fraction of PARL in the PLs with an outward facing active site using a membrane […] activity-based TAMRA-labeled fluorophosphonate probe ([42]). […] These values were used to calculate specific activity of the PARL protease. Next, we compared cleavage of three IQ-peptide substrates by reconstituted full-length mature PARLΔ55 and the β-truncated form, PARLΔ77 (Fig. 3, Tables S5 and S6).
Assays with FRET-PINK1^70–134 were conducted as previously described ([26]). For EDANS/Dabcyl 10-mer IQ peptides (PINK1, PGAM5, Smac/Diablo), lyophilized peptides were initially dissolved in DMSO to obtain a stock solution. The IQ peptide substrates in a concentration range of 0.1–70 μM were incubated with activity assay buffer (50 mM Tris-HCl pH 7.0, 150 mM NaCl, 10% glycerol, 0.1% DDM) in a 384-well black-bottomed plate at 37 °C for 30 min in a multiwell plate reader (SynergyMx, BioTek). For all concentrations of IQ peptide, the DMSO was kept constant at 5%. Following preincubation, PARL was added to a final concentration of 0.8 μM to initiate the cleavage reaction. Fluorescence readings were taken every 3 min over a 3 h time course at ƛex = 336 nm and ƛem = 490 nm. The initial velocity was determined from the fluorescence readings over the time course. For each substrate concentration, a no-enzyme control was subtracted to eliminate background fluorescence changes not related to substrate cleavage. Relative fluorescence units were converted to concentration (μM) by determining the maximum change in fluorescence observed for each substrate concentration when fully digested. GraphPad Prism software was used for Michaelis–Menten analysis of kinetic curves. All kinetic data were obtained using at least three biological replicates (different enzyme preparations) with technical duplicates for each experiment. For kinetic measurements in detergent with all three substrates, the activity assays were repeated at least five times. In addition, after each protease purification, the quality control of purified PARL was controlled by measuring its enzymatic activity. Minimum of three experimental replicates with two technical replicates were used for data analysis.
E. coli polar lipids (Avanti), 400 μg in chloroform, were dried under nitrogen stream in a glass tube to yield a thin film of lipid. The tube was incubated overnight in a desiccator to completely remove all traces of solvent. In total, 50 μl of water and DDM detergent was added to the lipid film for resuspension at room temperature for 10 min, followed by the addition of purified PARL (400 μg) in 50 mM Tris-HCl, pH 8.0, 150 mM NaCl, 20% glycerol, 0.1% DDM, to yield the final weight ratio of 1 PARL:1 lipid:2 detergent. The detergent was slowly removed by the addition of SM2 Biobeads (Bio-Rad) while stirring on ice for 6 h to allow for the generation of proteoliposomes (PL); the process was controlled by the regimen of Biobead addition. To purify the PL, 50%:20% sucrose density gradient ultracentrifugation was used. A TAMRA probe (ThermoFisher) was used to determine the orientation of reconstituted PARL, which specifically and covalently labels serine residues of an enzymatically active serine protease. In total, 2 μM of TAMRA probe was added to PL samples and incubated for 1 h, allowing the TAMRA probe to label only the outward-facing accessible active sites. […]

## (DABCYL)-AVFLSAVAVG-Glu(EDANS) [IQ-PGAM5^20–29, internally quenched DABCYL/EDANS peptide substrate based on PGAM5 PARL cleavage site]
  Km: 1.3 ± 0.2 µM
  kcat (turnover rate): 0.00133 ± 0.000333 s⁻¹
  kcat/KM (catalytic efficiency): 1000 ± 170 M⁻¹ s⁻¹

## (DABCYL)-AVFLAFGLGL-Glu(EDANS) [IQ-PINK1^99–108, internally quenched DABCYL/EDANS peptide substrate based on PINK1 PARL cleavage site]
  Km: 13 ± 2 µM
  kcat (turnover rate): 0.0025 ± 0.00017 s⁻¹
  kcat/KM (catalytic efficiency): 190 ± 28 M⁻¹ s⁻¹

## (DABCYL)-GVT LCAVPIA-Glu(EDANS) [IQ-Smac/Diablo^51–60, internally quenched DABCYL/EDANS peptide substrate based on Smac/Diablo PARL cleavage site]
  Km: 3.9 ± 0.7 µM
  kcat (turnover rate): 0.00153 ± 8.3e-05 s⁻¹
  kcat/KM (catalytic efficiency): 389 ± 83 M⁻¹ s⁻¹
